A word on the IC50: it is the point on the concentration scale where inhibition reaches its midpoint.

SMILES strings stand for the structures.

This is an account of results in BindingDB's records for doi:10.1021/jm049768a (Eli Lilly, 2004).

The target in the test is 3-phosphoinositide-dependent protein kinase 1 (Homo sapiens) (UniProt O15530). The experiment in a line: Inhibition of human PDK-1.
Compound `O=C1NC(=O)C(c2cnc3ccccn23)=C1c1cn2c3c(cccc13)CN(C(=O)N1CCCCC1)CC2` [3-Imidazo[1,2-a]pyridin-3-yl-4-[2-(piperidine-1-carbonyl)-1,2,3,4-tetrahydro-[1,4]diazepino[6,7,1-hi]indol-7-yl]-pyrrole-2,5-dione] returned a 50% inhibitory concentration (IC50) of 4.3 µM.

Turning to `CN(C)C(=O)N1CCn2cc(C3=C(c4cnc5ccccn45)C(=O)NC3=O)c3cccc(c32)C1` [7-(4-Imidazo[1,2-a]pyridin-3-yl-2,5-dioxo-2,5-dihydro-1H-pyrrol-3-yl)-3,4-dihydro-1H-[1,4]diazepino[6,7,1-hi]indole-2-carboxylic acid dimethylamide], the IC50 is greater than 20 µM. In turn, `CC(C)OC(=O)N1CCn2cc(C3=C(c4cnc5ccccn45)C(=O)NC3=O)c3cccc(c32)C1` [7-(4-Imidazo[1,2-a]pyridin-3-yl-2,5-dioxo-2,5-dihydro-1H-pyrrol-3-yl)-3,4-dihydro-1H-[1,4]diazepino[6,7,1-hi]indole-2-carboxylic acid isopropyl ester] had an IC50 of 6.5 µM.
